Literature values as cited in patent US7560230B2, “Method for determining susceptibility of tumor to treatment with anti-neoplastic agent” (Threshold Pharmaceuticals, Inc., priority 2003, dated 2009).

What was measured:
Details in all cases: sodium-dependent transport
SGLT1 = target: T1, SGLT1 (Homo sapiens, UniProt P13866)
T1 sequence (P13866 1-664): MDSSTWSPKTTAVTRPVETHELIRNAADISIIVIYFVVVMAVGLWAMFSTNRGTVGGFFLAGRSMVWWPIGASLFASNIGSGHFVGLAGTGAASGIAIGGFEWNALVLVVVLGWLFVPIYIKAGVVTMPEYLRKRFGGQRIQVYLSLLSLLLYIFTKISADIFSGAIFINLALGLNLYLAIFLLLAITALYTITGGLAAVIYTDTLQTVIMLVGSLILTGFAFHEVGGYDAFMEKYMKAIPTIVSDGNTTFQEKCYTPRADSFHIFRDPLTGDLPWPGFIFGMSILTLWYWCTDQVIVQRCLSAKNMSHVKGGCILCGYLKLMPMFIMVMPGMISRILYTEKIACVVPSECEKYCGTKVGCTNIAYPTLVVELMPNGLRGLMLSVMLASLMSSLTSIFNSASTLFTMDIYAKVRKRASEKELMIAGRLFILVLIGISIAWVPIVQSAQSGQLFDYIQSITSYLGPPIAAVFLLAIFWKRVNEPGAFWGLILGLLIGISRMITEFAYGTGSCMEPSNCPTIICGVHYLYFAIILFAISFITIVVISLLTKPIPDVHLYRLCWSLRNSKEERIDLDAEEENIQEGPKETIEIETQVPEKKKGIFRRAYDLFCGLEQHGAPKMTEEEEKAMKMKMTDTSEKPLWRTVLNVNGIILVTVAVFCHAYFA

SGLT2 = target: T2, SGLT2 (Homo sapiens, UniProt P31639)
T2 sequence (P31639 1-672): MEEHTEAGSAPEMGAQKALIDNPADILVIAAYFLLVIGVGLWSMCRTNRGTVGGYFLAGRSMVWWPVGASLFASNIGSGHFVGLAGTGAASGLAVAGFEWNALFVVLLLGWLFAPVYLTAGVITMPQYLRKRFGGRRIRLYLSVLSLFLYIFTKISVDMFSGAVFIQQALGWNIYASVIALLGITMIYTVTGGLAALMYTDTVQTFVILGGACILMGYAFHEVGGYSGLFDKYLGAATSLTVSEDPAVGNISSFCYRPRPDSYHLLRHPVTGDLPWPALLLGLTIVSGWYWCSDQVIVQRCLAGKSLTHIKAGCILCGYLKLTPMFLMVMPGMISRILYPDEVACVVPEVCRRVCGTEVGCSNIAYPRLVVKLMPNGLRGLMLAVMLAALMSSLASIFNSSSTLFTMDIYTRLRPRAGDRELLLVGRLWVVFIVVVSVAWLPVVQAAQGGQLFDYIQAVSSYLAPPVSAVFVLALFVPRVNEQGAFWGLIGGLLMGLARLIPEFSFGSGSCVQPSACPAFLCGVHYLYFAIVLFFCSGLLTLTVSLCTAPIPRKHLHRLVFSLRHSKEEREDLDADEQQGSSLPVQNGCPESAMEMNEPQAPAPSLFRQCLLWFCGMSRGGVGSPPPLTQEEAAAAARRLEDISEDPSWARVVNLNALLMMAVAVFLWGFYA

SGLT3 = system: SGLT3

CO[C@H]1O[C@H](CO)[C@@H](O)[C@H](O)[C@H]1O [a-MDG, a-methyl-D-glucoside]
apparent affinity (K0.5) (SGLT1): 0.4 mM | apparent affinity (K0.5) (SGLT2): 2 mM | apparent affinity (K0.5) (SGLT3): 2 mM
